Drawing on patent US8263610B2, “Substituted imidazolyl-5,6-dihydrobenzo[N]isoquinoline compounds” (ArQule, Inc., priority 2008, dated 2012), this text covers melting point for 45 compounds.

SMILES strings stand for the structures. Counter-ions that a name gives are not always drawn.

By melting point is commonly meant the temperature of the solid-liquid transition.

`O=S(=O)(c1ccccc1)N1CCc2c(cnc3[nH]ncc23)C1` had a melting point of 270 to 271 °C.
As for `S=C(Nc1ccccc1)N1CCc2c(cnc3[nH]ncc23)C1`, the figure is 200 to 202 °C; as for `COc1ccc(CN2CCc3c(cnc4c3cnn4Cc3ccc(OC)cc3)C2)cc1`, 105 to 107 °C.
As for `O=C(Nc1ccccc1)NC1CCc2c(cnc3[nH]ncc23)C1` (stereo not drawn), the figure is greater than 216 °C; as for `O=C(Nc1ccccc1)C1CCc2c(cnc3[nH]ncc23)C1` (stereo not drawn), greater than 300 °C; as for `COc1ccc(Cn2ncc3c4c(cnc32)CNCC4)cc1`, 96 to 102 °C.
Under `O=C(O)C(F)(F)F.c1nc2[nH]ncc2c2c1CNCC2` stands 224 to 227 °C; under `Cl.c1ccc(-c2n[nH]c3ncc4c(c23)CCNC4)cc1`, 265 °C (dec.).
`O=C(C(NCCO)c1ccccc1)N1CCc2c(cnc3[nH]nc(Br)c23)C1.O=C(O)C(F)(F)F` (stereo not drawn) yielded a melting point greater than 115 °C.
The compound `Cl.O=C(C(c1ccccc1)N1CCNCC1)N1CCc2c(cnc3[nH]nc(Br)c23)C1` (stereo not drawn) returned a melting point greater than 245 °C.
As for `N[C@H](C(=O)N1CCc2c(cnc3[nH]ncc23)C1)c1ccccc1.O=C(O)C(F)(F)F`, the figure is greater than 100 °C.
Under `c1ccc(CNC2CCc3c(cnc4[nH]ncc34)C2)cc1` (stereo not drawn) (as salt: TFA) stands greater than 232 °C.
In turn, `Clc1ccccc1C1Cc2cnc3[nH]nc(-c4cnn(C5CCNCC5)c4)c3c2-c2ccccc21` (stereo not drawn) (as salt: TFA) [Example 19, 7-(2-chlorophenyl)-1-(1-piperidin-4-yl-1H-pyrazol-4-yl)-6,7-dihydro-3H-benzo[f]pyrazolo[3,4-c]isoquinoline] yielded a melting point greater than 225 °C.
As for `O=C(C(NCCc1c[nH]c2ccccc12)c1ccccc1)N1CCc2c(cnc3[nH]ncc23)C1` (stereo not drawn) (as salt: TFA) [Example 84, N-(2-(1H-indol-3-yl)ethyl)-2-(8,9-dihydro-3H-pyrazolo[3,4-c][2,7]naphthyridin-7(6H)-yl)-2-oxo-1-phenylethanaminium 2,2,2-trifluoroacetate], the figure is greater than 164 °C; as for `CN(C)CCNC(=O)c1cccc(NC(=O)N2CCc3c(cnc4[nH]ncc34)C2)c1` (as salt: TFA) [Example 95, N-(3-(2-(dimethylamino)ethylcarbamoyl)phenyl)-8,9-dihydro-3H-pyrazolo[3,4-c][2,7]naphthyridine-7(6H)-carboxamide], 184 to 196 °C.
`O=C(NCc1ccccc1)c1cccc(NC(=O)N2CCc3c(cnc4[nH]ncc34)C2)c1` (as salt: TFA) [Example 96, N-[3-(benzylcarbamoyl)phenyl]-3,6,8,9-tetrahydro-7H-pyrazolo[3,4-c][2,7]naphthyridine-7-carboxamide]: the melting point was greater than 135 °C.
Under `O=C(c1ccccc1)c1c[nH]c2ncnc(N3CCc4c(cnc5[nH]ncc45)C3)c12` (as salt: TFA) [Example 435, (4-(8,9-dihydro-3H-pyrazolo[3,4-c][2,7]naphthyridin-7(6H)-yl)-7H-pyrrolo[2,3-d]pyrimidin-5-yl)(phenyl)methanone] stands 300 to 302 °C; under `O=C(Nc1ccccc1)N1CCc2c(cnc3[nH]nc(C4=CCNCC4)c23)C1` (as salt: chloride), 230 to 231 °C; under `NC(=O)c1cccc(-c2n[nH]c3ncc4c(c23)CCNC4)c1` (as salt: trifluoroacetate), 240 °C (dec.).
Turning to `CC(=O)Nc1cccc(-c2n[nH]c3ncc4c(c23)CCNC4)c1` (as salt: trifluoroacetate) [Example 456, 1-(3-acetamidophenyl)-6,7,8,9-tetrahydro-3H-pyrazolo[3,4-c][2,7]naphthyridin-7-ium 2,2,2-trifluoroacetate], the melting point is 245 °C (dec.).
As to `COc1ccc(Cn2ncc3c4c(cnc32)CC(NC(=O)c2ccccc2)CC4)cc1` (stereo not drawn) [Compound 5, N-[3-(4-methoxybenzyl)-6,7,8,9-tetrahydro-3H-pyrazolo[3,4-c]isoquinolin-7-yl]benzamide], the melting point was greater than 65 °C.
As for `COc1ccc(Cn2ncc3c4c(cnc32)CN(S(=O)(=O)c2ccccc2)CC4)cc1` [Compound 6, 3-(4-methoxybenzyl)-7-(phenylsulfonyl)-6,7,8,9-tetrahydro-3H-pyrazolo[3,4-c][2,7]naphthyridine], the figure is 136 to 138 °C.
Compound `Clc1ccc(C2Cc3cnc4[nH]ncc4c3-c3ccccc32)cc1Cl` (stereo not drawn) [Example 1, 7-(3,4-dichlorophenyl)-6,7-dihydro-3H-benzo[f]pyrazolo[3,4-c]isoquinoline] came in with a melting point of 168 to 170 °C.
Compound `c1ccc(C2Cc3cnc4[nH]ncc4c3-c3ccccc32)cc1` (stereo not drawn) [Example 2, 7-phenyl-6,7-dihydro-3H-benzo[f]pyrazolo[3,4-c]isoquinoline] came in with a melting point of 143 to 145 °C.
As for `Fc1ccc(C2Cc3cnc4[nH]ncc4c3-c3ccccc32)cc1F` (stereo not drawn) [Example 3, 7-(3,4-difluorophenyl)-6,7-dihydro-3H-benzo[f]pyrazolo[3,4-c]isoquinoline], the figure is 195 to 196 °C; as for `Clc1ccccc1C1Cc2cnc3[nH]ncc3c2-c2ccccc21` (stereo not drawn) [Example 5, 7-(2-dichlorophenyl)-6,7-dihydro-3H-benzo[f]pyrazolo[3,4-c]isoquinoline], 88 to 91 °C; as for `Fc1ccc(C2Cc3cnc4[nH]ncc4c3-c3ccccc32)cc1` (stereo not drawn) [Example 6, 7-(4-fluorophenyl)-6,7-dihydro-3H-benzo[f]pyrazolo[3,4-c]isoquinoline], 167 to 169 °C.
Under `Cc1cc(C)c2c(c1)-c1c(cnc3[nH]ncc13)CC2` [Example 7, 8,10-dimethyl-6,7-dihydro-3H-benzo[f]pyrazolo[3,4-c]isoquinoline] stands 152 to 155 °C; under `COc1cccc2c1CCc1cnc3[nH]ncc3c1-2` [Example 8, 8-methoxy-6,7-dihydro-3H-benzo[f]pyrazolo[3,4-c]isoquinoline], 85 to 89 °C.
As for `COc1ccc2c(c1)-c1c(cnc3[nH]ncc13)CC2` [Example 9, 10-methoxy-6,7-dihydro-3H-benzo[f]pyrazolo[3,4-c]isoquinoline], the figure is 95 to 97 °C; as for `c1cnc2c(c1)CCc1cnc3[nH]ncc3c1-2` [Example 10, 6,9-dihydro-5H-pyrazolo[3,4-k][1,8]phenanthroline], 263 to 265 °C; as for `O=[N+]([O-])c1ccc2c(c1)-c1c(cnc3[nH]ncc13)CC2` [Example 14, 10-nitro-6,7-dihydro-3H-benzo[f]pyrazolo[3,4-c]isoquino line], 214 to 217 °C.
In turn, `O=c1ccc2c([nH]1)CCc1cnc3[nH]ncc3c1-2` [Example 15, 6,7-dihydro-3H-pyrazolo[4,3-a][3,7]phenanthrolin-9(8H)-one] showed a melting point of 290 to 296 °C.
As for `Brc1n[nH]c2ncc3c(c12)-c1ccccc1C(c1ccccc1)C3` (stereo not drawn) [Example 16, 1-bromo-7-phenyl-6,7-dihydro-3H-benzo[f]pyrazolo[3,4-c]isoquinoline], the figure is 176 to 178 °C.
As for `CC(C)(C)OC(=O)N1CCC(n2cc(-c3n[nH]c4ncc5c(c34)-c3ccccc3C(c3ccccc3Cl)C5)cn2)CC1` (stereo not drawn) [Example 18, tert-butyl 4-(4-(7-(2-chlorophenyl)-6,7-dihydro-3H-benzo[f]pyrazolo[3,4-c]isoquinolin-1-yl)-1H-pyrazol-1-yl)piperidine-1-carboxylate], the figure is 139 to 141 °C; as for `c1ccc2c(c1)NCCc1cnc3[nH]ncc3c1-2` [Example 29, 3,6,7,8-tetrahydropyrazolo[4′,3′:5,6]pyrido[3,4-d][1]benzazepine], 215 to 217 °C.
Under `CC(C)(C)OC(=O)N1CCc2c(cnc3[nH]ncc23)C1` [Example 76, tert-butyl 8,9-dihydro-3H-pyrazolo[3,4-c][2,7]naphthyridine-7(6H)-carboxylate] stands greater than 70 °C; under `CC(C)(C)OC(=O)N1CCc2c(cnc3[nH]nc(Br)c23)C1` [Example 77, tert-butyl 1-bromo-8,9-dihydro-3H-pyrazolo[3,4-c][2,7]naphthyridine-7(6H)-carboxylate], greater than 65 °C; under `CC(C)(C)OC(=O)N1CCN(C(C(=O)N2CCc3c(cnc4[nH]nc(Br)c34)C2)c2ccccc2)CC1` (stereo not drawn) [Example 91, tert-butyl 4-(2-(1-bromo-8,9-dihydro-3H-pyrazolo[3,4-c][2,7]naphthyridin-7(6H)-yl)-2-oxo-1-phenylethyl)piperazine-1-carboxylate], 159 to 161 °C.
`O=C(O)c1cccc(NC(=O)N2CCc3c(cnc4[nH]ncc34)C2)c1` [Example 93b, 3-(6,7,8,9-tetrahydro-3H-pyrazolo[3,4-c][2,7]naphthyridine-7-carboxamido)benzoic acid] displayed a melting point of 237 to 241 °C.
Under `O=C(Nc1cccc(C(=O)N2CCC(n3c(=O)[nH]c4ccccc43)CC2)c1)N1CCc2c(cnc3[nH]ncc23)C1` [Example 94, N-(3-(4-(2-oxo-2,3-dihydro-1H-benzo[d]imidazol-1-yl)piperidine-1-carbonyl)phenyl)-8,9-dihydro-3H-pyrazolo[3,4-c][2,7]naphthyridine-7(6H)-carboxamide] stands greater than 215 °C; under `COc1ccc(Cn2ncc3c4c(cnc32)CN(C(=O)Nc2cccc(C(=O)O)c2)CC4)cc1` [Example 153, 3-(3-(4-methoxybenzyl)-6,7,8,9-tetrahydro-3H-pyrazolo[3,4-c][2,7]naphthyridine-7-carboxamido)benzoic acid], greater than 136 °C; under `O=S(=O)(NC1CCc2c(cnc3[nH]ncc23)C1)c1ccccc1` (stereo not drawn) [Example 158, N-(6,7,8,9-tetrahydro-3H-pyrazolo[3,4-c]isoquinolin-7-yl)benzenesulfonamide], 228 to 229 °C.
As for `O=C(Nc1ccccc1)N1CCc2c(cnc3[nH]ncc23)C1` [Example 318, N-phenyl-8,9-dihydro-3H-pyrazolo[3,4-c][2,7]naphthyridine-7(6H)-carboxamide], the figure is 184 to 186 °C.
For the compound `O=C(Nc1ccccc1)N1CCc2cnc3[nH]ncc3c2-c2ccccc21` [Example 319, N-phenyl-6,7-dihydropyrazolo[4′,3′:5,6]pyrido[3,4-d][1]benzazepine-8(3H)-carboxamide], the melting point was greater than 140 °C.
